The values that follow come from US20210122730A1, “GLUCOCORTICOID RECEPTOR MODULATORS” (ORIC Pharmaceuticals, Inc., priority 2017, published 2021).

The target of one series is T1, CYP2C8 (Homo sapiens, UniProt P10632).
T1 construct: Pooled human microsomes were obtained from Sekisui XenoTech, KS; tissue Sekisui XenoTech, KS; host or cells: pooled human liver microsomes
T1 sequence (P10632 1-490): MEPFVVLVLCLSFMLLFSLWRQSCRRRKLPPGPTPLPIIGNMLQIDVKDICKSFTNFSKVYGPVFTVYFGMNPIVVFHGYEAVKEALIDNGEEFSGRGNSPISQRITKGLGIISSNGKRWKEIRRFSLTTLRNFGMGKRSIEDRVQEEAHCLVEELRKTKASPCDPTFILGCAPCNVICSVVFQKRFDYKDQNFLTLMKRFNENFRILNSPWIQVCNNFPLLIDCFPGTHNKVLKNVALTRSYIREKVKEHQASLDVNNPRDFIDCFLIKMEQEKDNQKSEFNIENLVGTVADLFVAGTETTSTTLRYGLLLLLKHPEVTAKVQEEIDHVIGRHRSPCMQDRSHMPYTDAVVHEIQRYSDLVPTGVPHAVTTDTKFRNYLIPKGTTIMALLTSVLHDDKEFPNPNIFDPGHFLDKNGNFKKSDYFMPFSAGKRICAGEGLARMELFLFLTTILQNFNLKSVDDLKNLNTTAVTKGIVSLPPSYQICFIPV
The experiment in a line: CYP Inhibition Assay (CYP2C8, human liver microsomes, paclitaxel substrate). The format is in vitro ADME. Conditions: pH 7.4; pooled human liver microsomes 0.1 mg/mL, probe substrate paclitaxel. As for the experimental part:
Example B: CYP Inhibition Assay
Objective: To assess the % inhibition of test compounds against CYP2C8 enzyme in human liver microsomes.
Pooled human microsomes were obtained from Sekisui XenoTech, KS, and were used for in vitro assessment of compound inhibitory potential of the major drug metabolizing human CYP enzymes.
Test compounds were dissolved in DMSO as 10 mM stock solutions and diluted to 200 µM in acetonitrile as working solutions. The total concentrations of DMSO and acetonitrile were 0.02% and 0.5%, respectively, in the assay.
The assay was performed in duplicate in a 96-well plate. The reaction mixture ([…]) containing a final concentration of 0.1 mg/mL pooled human liver microsomes, 50 mM potassium phosphate, pH 7.4 buffer, was re-warmed at 37° C. for 5 minutes. The reaction was initiated with NADPH solution which was at 1 mM final concentration, and carried out for 5 minutes at 37° C. It was terminated by the addition of 3-fold volume of quench solution (1:1 acetonitrile:methanol with 0.1% formic acid and the internal standard of tolbutamide). The sample was vortexed, centrifuged at 4,000 rpm for 15 min at 4° C. The incubation in the presence of vehicle (0.02% DMSO and 0.5% acetonitrile) was used as the enzyme activity control. The analyses of metabolite 6α-hydroxypaclitaxel in supernatant was performed with LC-MS/MS method (Sciex API 4500 Qtrap coupled to a Shimadzu LC-20AD HPLC).
The CYP enzyme activity was determined based on the formation of 6a-hydroxypaclitaxel metabolite. The % inhibition was calculated using this equation: % Inhibition=100×(1−Ainactivator/Avehicle), where Ainactivator is the CYP enzyme activity in the presence of test compound, and Avehicle is the CYP activity in the presence of vehicle.

A further series addresses T2, GR (Homo sapiens, UniProt P04150).
T2 construct: expressed in transfected cells; host or cells: CHO-K1
T2 sequence (P04150 1-777): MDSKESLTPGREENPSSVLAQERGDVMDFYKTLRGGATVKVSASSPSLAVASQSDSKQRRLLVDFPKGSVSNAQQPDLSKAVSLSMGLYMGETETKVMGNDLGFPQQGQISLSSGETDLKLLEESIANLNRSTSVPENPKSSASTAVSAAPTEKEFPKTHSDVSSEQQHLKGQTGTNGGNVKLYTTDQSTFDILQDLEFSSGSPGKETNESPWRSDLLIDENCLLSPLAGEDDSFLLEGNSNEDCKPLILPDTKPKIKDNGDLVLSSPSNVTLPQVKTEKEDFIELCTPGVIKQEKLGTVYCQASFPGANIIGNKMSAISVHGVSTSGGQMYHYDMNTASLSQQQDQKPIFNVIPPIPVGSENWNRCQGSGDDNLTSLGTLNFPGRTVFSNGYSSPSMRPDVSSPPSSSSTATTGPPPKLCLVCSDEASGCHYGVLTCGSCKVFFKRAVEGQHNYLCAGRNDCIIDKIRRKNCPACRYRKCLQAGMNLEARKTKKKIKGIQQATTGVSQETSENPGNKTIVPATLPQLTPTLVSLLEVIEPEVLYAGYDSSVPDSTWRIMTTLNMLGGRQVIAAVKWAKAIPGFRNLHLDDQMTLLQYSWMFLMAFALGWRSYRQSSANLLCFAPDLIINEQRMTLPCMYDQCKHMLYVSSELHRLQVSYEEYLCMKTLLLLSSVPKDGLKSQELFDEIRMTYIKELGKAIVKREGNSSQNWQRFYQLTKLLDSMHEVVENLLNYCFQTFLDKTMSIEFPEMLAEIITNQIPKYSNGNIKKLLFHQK
Briefly: In Vitro GR Luciferase Reporter Assay (antagonist mode, CHO-K1-GR-MMTV-Luc reporter cells). The format is cell-based. A digest of the protocol:
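Antagonist mode: compounds (8 serial 1:5 dilutions) added to GR-MMTV-luciferase CHO-K1 reporter cells co-exposed to 10 nM dexamethasone final, in phenol red-free DMEM plus 10% CSS. After roughly 18-24 h at 37° C, OneGlo luminescence read and IC50 calculated.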

The mark [1] stands for this setting: antagonist assay with 10 nM Dexamethasone, 18-24 hours.
The mark [2] stands for this setting: antagonist mode, 10 nM Dexamethasone.

The structures appear in SMILES notation. Some results are limits rather than exact numbers.

Molecule `CCN([C@H]1CCC2=Cc3c(cnn3-c3ccc(F)cc3)C[C@]2(C(=O)c2cc(C(F)(F)F)ccn2)C1)S(=O)(=O)c1cnn(C)c1` [Example 91, N-ethyl-N-((4aS,6S)-1-(4-fluorophenyl)-4a-(4-(trifluoromethyl)picolinoyl)-4,4a,5,6,7,8-hexahydro-1H-benzo[f]indazol-6-yl)-1-methyl-1H-pyrazole-4-sulfonamide] came in with an inhibition at 5 min at CYP2C8 of 50 to 75%. The IC50 on GR (setting [1]) is at most 100 nM.
For the molecule `CN([C@H]1CCC2=Cc3c(cnn3-c3ccc(F)cc3)C[C@]2(C(=O)c2ccc(C3CC3)cn2)C1)S(=O)(=O)c1cnn(C)c1` [Example 93, N-((4aS,6S)-4a-(5-cyclopropylpicolinoyl)-1-(4-fluorophenyl)-4,4a,5,6,7,8-hexahydro-1H-benzo[f]indazol-6-yl)-N,1-dimethyl-1H-pyrazole-4-sulfonamide], at CYP2C8, the inhibition at 5 min was 75 to 90%. The IC50 against GR (setting [1]) is at most 100 nM.
On to `CN([C@H]1CCC2=Cc3c(cnn3-c3ccc(F)cc3)C[C@]2(C(=O)c2cc(C(F)(F)F)ccn2)C1)S(=O)(=O)C1CCOCC1` [Example 94, N-((4aS,6S)-1-(4-fluorophenyl)-4a-(4-(trifluoromethyl)picolinoyl)-4,4a,5,6,7,8-hexahydro-1H-benzo[f]indazol-6-yl)-N-methyltetrahydro-2H-pyran-4-sulfonamide], for which the inhibition at 5 min against CYP2C8 was in the range of 50 to 75%. Further, the IC50 on GR (setting [1]) was at most 100 nM.
`CN([C@H]1CCC2=Cc3c(cnn3-c3ccc(F)cc3)C[C@]2(C(=O)c2cc(C(F)(F)F)ccn2)C1)S(=O)(=O)c1ccc(Cl)cc1` [Example 99, 4-chloro-N-((4aS,6S)-1-(4-fluorophenyl)-4a-(4-(trifluoromethyl)picolinoyl)-4,4a,5,6,7,8-hexahydro-1H-benzo[f]indazol-6-yl)-N-methylbenzenesulfonamide] showed an inhibition at 5 min on CYP2C8 of 25 to 50%. At GR (setting [1]), this molecule registered a half-maximal inhibitory concentration (IC50) of at most 100 nM.
Taken in the same sequence, the figures for `Cn1cc(C(=O)N(C2CC2)[C@H]2CCC3=Cc4c(cnn4-c4ccc(F)cc4)C[C@]3(C(=O)c3cc(C(F)(F)F)ccn3)C2)cn1` [Example 102, N-cyclopropyl-N-((4aS,6S)-1-(4-fluorophenyl)-4a-(4-(trifluoromethyl)picolinoyl)-4,4a,5,6,7,8-hexahydro-1H-benzo[f]indazol-6-yl)-1-methyl-1H-pyrazole-4-carboxamide] were 75 to 90% and at most 100 nM.
Taken in the same sequence, the figures for `CN([C@H]1CCC2=Cc3c(cnn3-c3ccc(F)cc3)C[C@]2(C(=O)c2ccc(C(F)(F)F)cn2)C1)S(=O)(=O)c1cnn(C)n1` [Example 104, N-((4aS,6S)-1-(4-fluorophenyl)-4a-(5-(trifluoromethyl)picolinoyl)-4,4a,5,6,7,8-hexahydro-1H-benzo[f]indazol-6-yl)-N,2-dimethyl-2H-1,2,3-triazole-4-sulfonamide] were 50 to 75% and 100 to 1000 nM.
In the case of `Cn1ccc(S(=O)(=O)[C@@]2(F)CCC3=Cc4c(cnn4-c4ccc(F)cc4)C[C@]3(C(=O)c3cc(C(F)(F)F)ccn3)C2)n1` [Example 114, ((4aS,6S)-6-Fluoro-1-(4-fluorophenyl)-6-((1-methyl-1H-pyrazol-3-yl)sulfonyl)-1,4,5,6,7,8-hexahydro-4aH-benzo[f]indazol-4a-yl)(4-(trifluoromethyl)pyridin-2-yl)methanone], the inhibition at 5 min against CYP2C8 is at most 25%. On GR (setting [2]), this molecule showed a concentration for half-maximal inhibition (IC50) of at most 100 nM.
`CN([C@H]1CCC2=Cc3c(cnn3-c3ccc(F)cc3)C[C@]2(C(=O)c2ncc(C(F)(F)F)s2)C1)S(=O)(=O)c1cnn(C)c1` [Example 131, N-((4aS,6S)-1-(4-fluorophenyl)-4a-(5-(trifluoromethyl)thiazole-2-carbonyl)-4,4a,5,6,7,8-hexahydro-1H-benzo[f]indazol-6-yl)-N,1-dimethyl-1H-pyrazole-4-sulfonamide]: the inhibition at 5 min at CYP2C8 is 50 to 75%. Moreover, the IC50 against GR (setting [2]) is at most 100 nM.
At CYP2C8, `CN([C@H]1CCC2=Cc3c(cnn3-c3ccc(F)cc3)C[C@]2(C(=O)c2ncc(C3CC3)s2)C1)S(=O)(=O)c1cnn(C)c1` [Example 134, N-((4aS,6S)-4a-(5-cyclopropylthiazole-2-carbonyl)-1-(4-fluorophenyl)-4,4a,5,6,7,8-hexahydro-1H-benzo[f]indazol-6-yl)-N,1-dimethyl-1H-pyrazole-4-sulfonamide] showed an inhibition at 5 min of 75 to 90%. The molecule also had an IC50 against GR (setting [2]) of at most 100 nM.
`CN([C@H]1CCC2=Cc3c(cnn3-c3ccc(F)cc3)C[C@]2(C(=O)c2ncc(C3CC3)s2)C1)S(=O)(=O)c1ccn(C)n1` [Example 140, N-((4aS,6S)-4a-(5-cyclopropylthiazole-2-carbonyl)-1-(4-fluorophenyl)-4,4a,5,6,7,8-hexahydro-1H-benzo[f]indazol-6-yl)-N,1-dimethyl-1H-pyrazole-3-sulfonamide] came in with an inhibition at 5 min against CYP2C8 of 75 to 90%. This molecule also had a 50% inhibitory concentration (IC50) against GR (setting [2]) of at most 100 nM.
Taken in the same sequence, the figures for `Cn1ncc(S(=O)(=O)N(C2CC2)[C@H]2CCC3=Cc4c(cnn4-c4ccc(F)cc4)C[C@]3(C(=O)c3cc(C(F)(F)F)ccn3)C2)n1` [Example 142, N-cyclopropyl-N-((4aS,6S)-1-(4-fluorophenyl)-4a-(4-(trifluoromethyl)picolinoyl)-4,4a,5,6,7,8-hexahydro-1H-benzo[f]indazol-6-yl)-2-methyl-2H-1,2,3-triazole-4-sulfonamide] were 50 to 75% and at most 100 nM.
The matching figures for `CN([C@H]1CCC2=Cc3c(cnn3-c3ccc(F)cc3)C[C@]2(C(=O)c2ncc(C(F)(F)F)s2)C1)S(=O)(=O)c1ccn(C)n1` [Example 144, N-((4aS,6S)-1-(4-fluorophenyl)-4a-(5-(trifluoromethyl)thiazole-2-carbonyl)-4,4a,5,6,7,8-hexahydro-1H-benzo[f]indazol-6-yl)-N,1-dimethyl-1H-pyrazole-3-sulfonamide]: 75 to 90% and at most 100 nM.
Taken in the same sequence, the figures for `CCN([C@H]1CCC2=Cc3c(cnn3-c3ccc(F)cc3)C[C@]2(C(=O)c2ncc(C(F)(F)F)s2)C1)S(=O)(=O)c1cnn(C)c1` [Example 153, N-ethyl-N-((4aS,6S)-1-(4-fluorophenyl)-4a-(5-(trifluoromethyl)thiazole-2-carbonyl)-4,4a,5,6,7,8-hexahydro-1H-benzo[f]indazol-6-yl)-1-methyl-1H-pyrazole-4-sulfonamide] were 50 to 75% and at most 100 nM.
Molecule `CCN([C@H]1CCC2=Cc3c(cnn3-c3ccc(F)cc3)C[C@]2(C(=O)c2cc(C(F)(F)F)ccn2)C1)S(=O)(=O)c1ccn(C)n1` [Example 155, N-ethyl-N-((4aS,6S)-1-(4-fluorophenyl)-4a-(4-(trifluoromethyl)picolinoyl)-4,4a,5,6,7,8-hexahydro-1H-benzo[f]indazol-6-yl)-1-methyl-1H-pyrazole-3-sulfonamide] came in with an inhibition at 5 min on CYP2C8 of 25 to 50%. Also, at GR (setting [2]), the IC50 was at most 100 nM.
